IC50 data for 35 molecules are collected here from US10112929B2, “Lactams as inhibitors of rock” (BRISTOL-MYERS SQUIBB COMPANY, priority 2015, dated 2018).
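Further: rho kinase enzyme reaction halted with EDTA, phospho- and non-phospho peptide separated for read-out, kinase activity inhibition derived across a dose-response series, DMSO under 2%.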

The target in this assay is ROCK2 (Homo sapiens (Human), UniProt O75116). As to the kind of experiment: biochemical.
ROCK2, sequence (O75116 whole entry, species assumed): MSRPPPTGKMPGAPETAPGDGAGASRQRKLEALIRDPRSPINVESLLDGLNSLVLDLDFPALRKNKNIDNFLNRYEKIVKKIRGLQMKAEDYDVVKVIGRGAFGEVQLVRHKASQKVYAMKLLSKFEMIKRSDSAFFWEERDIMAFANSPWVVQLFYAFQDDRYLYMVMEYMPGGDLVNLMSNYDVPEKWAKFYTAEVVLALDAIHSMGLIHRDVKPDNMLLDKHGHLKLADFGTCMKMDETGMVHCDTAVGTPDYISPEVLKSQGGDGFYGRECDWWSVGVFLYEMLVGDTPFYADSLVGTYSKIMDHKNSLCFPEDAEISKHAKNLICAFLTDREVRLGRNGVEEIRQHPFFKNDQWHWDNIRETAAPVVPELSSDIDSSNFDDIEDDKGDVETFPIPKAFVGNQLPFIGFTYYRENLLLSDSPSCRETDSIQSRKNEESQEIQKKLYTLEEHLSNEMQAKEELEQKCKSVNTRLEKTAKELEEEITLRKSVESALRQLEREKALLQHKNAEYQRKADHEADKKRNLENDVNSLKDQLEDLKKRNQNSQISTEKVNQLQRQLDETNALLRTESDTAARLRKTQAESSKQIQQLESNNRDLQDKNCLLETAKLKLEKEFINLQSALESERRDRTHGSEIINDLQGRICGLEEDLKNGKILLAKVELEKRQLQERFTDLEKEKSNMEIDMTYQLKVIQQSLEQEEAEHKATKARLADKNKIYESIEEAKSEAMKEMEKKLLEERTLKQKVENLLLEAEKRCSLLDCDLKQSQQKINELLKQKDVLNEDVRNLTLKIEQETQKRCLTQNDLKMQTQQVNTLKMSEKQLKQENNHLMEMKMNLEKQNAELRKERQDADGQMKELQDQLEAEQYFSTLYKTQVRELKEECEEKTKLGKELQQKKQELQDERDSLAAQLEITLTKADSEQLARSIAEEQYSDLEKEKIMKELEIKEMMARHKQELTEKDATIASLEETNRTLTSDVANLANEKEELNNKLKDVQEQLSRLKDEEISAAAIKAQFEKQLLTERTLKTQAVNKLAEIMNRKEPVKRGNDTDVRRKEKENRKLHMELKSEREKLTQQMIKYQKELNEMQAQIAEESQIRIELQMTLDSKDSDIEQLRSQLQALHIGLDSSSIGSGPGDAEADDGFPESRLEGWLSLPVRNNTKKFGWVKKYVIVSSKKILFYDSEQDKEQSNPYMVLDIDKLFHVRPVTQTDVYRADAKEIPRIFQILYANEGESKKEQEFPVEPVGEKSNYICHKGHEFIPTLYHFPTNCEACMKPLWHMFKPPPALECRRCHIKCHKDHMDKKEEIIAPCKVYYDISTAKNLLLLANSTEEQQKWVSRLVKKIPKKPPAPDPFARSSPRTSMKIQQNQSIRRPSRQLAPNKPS
In the case of `COc1cccc(NC2CCN(c3ccc(-c4ccncc4F)c(OC)n3)C2=O)c1` (centres unmarked) [Example 118, 1-(3′-Fluoro-2-methoxy-[3,4′-bipyridin]-6-yl)-3-((3-methoxyphenyl)amino) pyrrolidin-2-one], the IC50 (commonly the concentration that inhibits the measured activity by half) was less than 10 nM.
`COc1cccc(NC2CCN(c3ncc(-c4cn[nH]c4)cc3F)C2=O)c1` (single isomer, unassigned) [Example 357, 1-(3-fluoro-5-(1H-pyrazol-4-yl)pyridin-2-yl)-3-((3-methoxyphenyl)amino) pyrrolidin-2-one] gave an IC50 of 100 to 2200 nM.
Molecule `COc1ccc(F)c(NC2CCN(c3ccc(-c4cn[nH]c4)cn3)C2=O)c1` (single isomer, unassigned) [Example 303, 1-(5-(1H-pyrazol-4-yl)pyridin-2-yl)-3-((2-fluoro-5-methoxyphenyl)amino)pyrrolidin-2-one] displayed an IC50 of 10 to 100 nM.
As to `COc1cc(NC2CCN(c3ccc(-c4cn[nH]c4)c(OC)n3)C2=O)ccc1F` (single isomer, unassigned) [Example 207, 3-((4-fluoro-3-methoxyphenyl)amino)-1-(6-methoxy-5-(1H-pyrazol-4-yl)pyridin-2-yl)pyrrolidin-2-one], the IC50 was less than 10 nM.
In turn, `O=C1C(NCc2ccccc2)CCN1c1ccc(-c2cn[nH]c2)cc1` (centres unmarked) [Example 57, 1-(4-(1H-pyrazol-4-yl)phenyl)-3-(benzylamino)pyrrolidin-2-one] yielded an IC50 of 100 to 2200 nM.
On to `COc1c(F)cccc1NC1CCN(c2ccc(-c3cn[nH]c3)cc2)C1=O` (single isomer, unassigned) [Example 15, 1-(4-(1H-pyrazol-4-yl)phenyl)-3-((3-fluoro-2-methoxyphenyl)amino)pyrrolidin-2-one], for which the IC50 is less than 10 nM.
Under `COc1ccc(F)c(NC2CCN(c3ccc(-c4cn[nH]c4)cc3)C2=O)c1` (single isomer, unassigned) [Example 239, 1-(4-(1H-pyrazol-4-yl)phenyl)-3-((2-fluoro-5-methoxyphenyl)amino)pyrrolidin-2-one] stands 10 to 100 nM; under `COc1cc(NC2CCN(c3cc(F)c(-c4cn[nH]c4)cc3F)C2=O)ccc1F` (single isomer, unassigned) [Example 349, 1-(2,5-difluoro-4-(1H-pyrazol-4-yl)phenyl)-3-((4-fluoro-3-methoxyphenyl)amino)pyrrolidin-2-one], 10 to 100 nM.
In turn, `N#Cc1cccc(N[C@@H]2CCN(c3ccc(-c4cn[nH]c4)cc3)C2=O)c1` [Example 387, (R)-3-((1-(4-(1H-pyrazol-4-yl)phenyl)-2-oxopyrrolidin-3-yl)amino)benzonitrile] returned an IC50 of 10 to 100 nM.
With `COc1c(F)cccc1NC1CCN(c2ccc(-c3cn[nH]c3)c(OC(F)F)c2)C1=O` (single isomer, unassigned) [Example 33, 1-(3-(difluoromethoxy)-4-(1H-pyrazol-4-yl)phenyl)-3-((3-fluoro-2-methoxyphenl)amino)pyrrolidin-2-one], the IC50 lay in the range of 10 to 100 nM.
Regarding `COc1ccc2c(c1)CCN2C1CCN(c2ccc(-c3cn[nH]c3)cc2)C1=O` (single isomer, unassigned) [Example 42, 1-(4-(1H-pyrazol-4-yl)phenyl)-3-(5-methoxyindolin-1-yl)pyrrolidin-2-one], the IC50 lay within 10 to 100 nM.
As to `COc1nc(N2CCC(Nc3ccccc3F)C2=O)ccc1-c1cn[nH]c1` (racemic) [Example 224, 3-((2-fluorophenyl)amino)-1-(6-methoxy-5-(1H-pyrazol-4-yl)pyridin-2-yl)pyrrolidin-2-one], the concentration for half-maximal inhibition (IC50) was less than 10 nM.
For `O=C1C(Oc2ccccc2Cl)CCN1c1ccc(-c2cn[nH]c2)cc1` (centres unmarked) [Example 110, 1-(4-(1H-pyrazol-4-yl)phenyl)-3-(2-chlorophenoxy)pyrrolidin-2-one] the value was 10 to 100 nM.
As for `COc1cccc(NC2CCN(c3ccc(-c4ccnc5[nH]ccc45)c(C)n3)C2=O)c1` (single isomer, unassigned) [Example 120, 3-((3-methoxyphenyl)amino)-1-(6-methyl-5-(1H-pyrrolo[2,3-b]pyridin-4-yl)pyridin-2-yl)pyrrolidin-2-one], the IC50 was 10 to 100 nM.
`COc1nc(N2CCC(Nc3ccc4c(c3)CS(=O)(=O)C4)C2=O)ccc1-c1cn[nH]c1` (racemic) [Example 263, 3-((2,2-dioxido-l,3-dihydrobenzo[c]thiophen-5-yl)amino)-1-(6-methoxy-5-(1H-pyrazol-4-yl)pyridin-2-yl)pyrrolidin-2-one] returned an IC50 of 100 to 2200 nM.
Under `COc1nc(N2CCC(Nc3ccc4ncsc4c3)C2=O)ccc1-c1cn[nH]c1` (racemic) [Example 259, 3-(benzo[d]thiazol-6-ylamino)-1-(6-methoxy-5-(1H-pyrazol-4-yl)pyridin-2-yl)pyrrolidin-2-one] stands less than 10 nM; under `COCc1cc(N2CCC(Nc3cccc(OC)c3)C2=O)ccc1-c1cn[nH]c1` (single isomer, unassigned) [Example 184, 1-(3-(methoxymethyl)-4-(1H-pyrazol-4-yl)phenyl)-3-((3-methoxyphenyl)amino) pyrrolidin-2-one], 10 to 100 nM.
In turn, `COc1c(F)cccc1NC1CCN(c2ccc(-c3cn[nH]c3)c(F)c2)C1=O` (single isomer, unassigned) [Example 336, 3-((3-fluoro-2-methoxyphenyl)amino)-1-(3-fluoro-4-(1H-pyrazol-4-yl)phenyl) pyrrolidin-2-one] registered an IC50 of less than 10 nM.
Regarding `COc1cc(N2CCC(Nc3ccccc3)C2=O)ccc1-c1cn[nH]c1` (centres unmarked) [Example 67, 1-(3-methoxy-4-(1H-pyrazol-4-yl)phenyl)-3-(phenylamino)pyrrolidin-2-one], the IC50 is less than 10 nM.
For `COc1cccc2c1N(C1CCN(c3ccc(-c4cn[nH]c4)cc3)C1=O)CC2` (single isomer, unassigned) [Example 51, l-(4-(1H-pyrazol-4-yl)phenyl)-3-(7-methoxyindolin-1-yl)pyrrolidin-2-one] the value was 10 to 100 nM; for `COc1nc(N2CCC(Nc3cccc(NC(C)=O)c3)C2=O)ccc1-c1cn[nH]c1` (racemic) [Example 260, N-(3-((1-(6-methoxy-5-(1H-pyrazol-4-yl)pyridin-2-yl)-2-oxopyrrolidin-3-yl)amino)phenyl)acetamide], less than 10 nM; for `CNc1nc(N2CCC(Nc3cc(F)cc(OC)c3)C2=O)ccc1-c1cn[nH]c1` (single isomer, unassigned) [Example 252, 3-((3-fluoro-5-methoxyphenyl)amino)-1-(6-(methylamino)-5-(1H-pyrazol-4-yl)pyridin-2-yl)pyrrolidin-2-one], less than 10 nM.
For `COc1cc(F)cc(NC2CCN(c3ccc(-c4cn[nH]c4)c(C)n3)C2=O)c1` (single isomer, unassigned) [Example 193, 3-((3-fluoro-5-methoxyphenyl)amino)-1-(6-methyl-5-(1H-pyrazol-4-yl)pyridin-2-yl)pyrrolidin-2-one] the value was less than 10 nM; for `COc1cc(NC2CCN(c3ccc(-c4cn[nH]c4)nc3)C2=O)ccc1F` (single isomer, unassigned) [Example 299, 1-(6-(1H-pyrazol-4-yl)pyridin-3-yl)-3-((4-fluoro-3-methoxyphenyl)amino)pyrrolidin-2-one], 10 to 100 nM; for `CNc1nc(N2CCC(Nc3cccc(OC)c3)C2=O)ccc1-c1cn[nH]c1` (single isomer, unassigned) [Example 253, 3-((3-methoxyphenyl)amino)-1-(6-(methylamino)-5-(1H-pyrazol-4-yl)pyridin-2-yl)pyrrolidin-2-one], 10 to 100 nM.
For `COc1cccc(NC2CCN(c3cnc(-c4cn[nH]c4)c(OC)n3)C2=O)c1` (centres unmarked) [Example 134, 1-(6-Methoxy-5-(1H-pyrazol-4-yl)pyrazin-2-yl)-3-((3-methoxyphenyl)amino) pyrrolidin-2-one] the value was less than 10 nM; for `COc1nc(N2CCC(Nc3cccc(C(N)=O)c3)C2=O)ccc1-c1cn[nH]c1` (racemic) [Example 258, 3-((1-(6-methoxy-5-(1H-pyrazol-4-yl)pyridin-2-yl)-2-oxopyrrolidin-3-yl)amino)benzamide], less than 10 nM.
In turn, `COc1cccc(NC2CCN(c3ccc(-c4ccnc(N)n4)c(C)n3)C2=O)c1` (single isomer, unassigned) [Example 122, 1-(5-(2-aminopyrimidin-4-yl)-6-methylpyridin-2-yl)-3-((3-methoxyphenyl)amino) pyrrolidin-2-one] had a concentration for half-maximal inhibition (IC50) of 10 to 100 nM.
In turn, `COc1cc(NC2CCN(c3ccc(-c4cn[nH]c4)c(Cl)c3)C2=O)ccc1F` (single isomer, unassigned) [Example 161, 1-(3-chloro-4-(1H-pyrazol-4-yl)phenyl)-3-((4-fluoro-3-methoxyphenyl)amino) pyrrolidin-2-one] came in with an IC50 of less than 10 nM.
Molecule `N#Cc1cccc(CC2CCN(c3ccc(-c4cn[nH]c4)cc3)C2=O)c1` (centres unmarked) [Example 97, 3-((1-(4-(1H-pyrazol-4-yl)phenyl)-2-oxopyrrolidin-3-yl)methyl)benzonitrile] registered an IC50 of 100 to 2200 nM.
`O=C1C(Nc2cccc(OCC(F)F)c2)CCN1c1ccc(-c2cn[nH]c2)cc1` (single isomer, unassigned) [Example 238, 1-(4-(1H-pyrazol-4-yl)phenyl)-3-((3-(2,2-difluoroethoxy)phenyl)amino)pyrrolidin-2-one] yielded an IC50 of 10 to 100 nM.
The molecule `COc1cccc(OC2CCN(c3ccc(-c4cn[nH]c4)c(OC)n3)C2=O)c1` (single isomer, unassigned) [Example 171, 1-(6-methoxy-5-(1H-pyrazol-4-yl)pyridin 2-yl)-3-(3-methoxyphenoxy)pyrrolidin-2-one] gave an IC50 of less than 10 nM.
`COc1nc(N2CCC(Nc3cccc(NS(C)(=O)=O)c3)C2=O)ccc1-c1cn[nH]c1` (racemic) [Example 265, N-(3-((1-(6-methoxy-5-(1H-pyrazol-4-yl)pyridin-2-yl)-2-oxopyrrolidin-3-yl)amino)phenyl)methanesulfonamide] had an IC50 of 10 to 100 nM.
`COc1cccc(NC2CCN(c3ccc(-c4cn[nH]c4)cc3)C2=O)n1` (racemic) [Example 223, 1-(4-(1H-pyrazol-4-yl)phenyl)-3-((6-methoxypyridin-2-yl)amino)pyrrolidin-2-one] showed an IC50 of 10 to 100 nM.
For `CCc1cc(N2CCC(Nc3cc(F)cc(OC)c3)C2=O)ccc1-c1cn[nH]c1` (single isomer, unassigned) [Example 246, 1-(3-ethyl-4-(1H-pyrazol-4-yl)phenyl)-3-((3-fluoro-5-methoxyphenyl)amino) pyrrolidin-2-one] the value was less than 10 nM.
